Patent publication US20210000792A1, “METHODS FOR REDUCING OR PREVENTING CARDIOVASCULAR EVENTS IN PATIENTS WITH TYPE II DIABETES MELLITUS” (Janssen Pharmaceutica NV, priority 2017, published 2021)

How the values were obtained:
Type in all cases: in vivo, human
[1] = test system: men and women with type 2 diabetes and history or high risk of cardiovascular disease; assay: CANVAS Program: integrated CANVAS and CANVAS-R clinical trials, canagliflozin versus placebo; conditions: for Cardiovascular mortality, hazard ratio (95% confidence interval) / Total (all-cause) mortality, hazard ratio (95% confidence interval): full integrated dataset; for Primary outcome (cardiovascular mortality, nonfatal myocardial infarction, or nonfatal stroke), hazard ratio (95% confidence interval): canagliflozin vs placebo; for Primary outcome (cardiovascular mortality, nonfatal myocardial infarction, or nonfatal stroke), events per 1000 patient-years: integrated database of CANVAS and CANVAS-R
Description: (§1) Two clinical trials were completed to assess the cardiovascular safety and efficacy of canagliflozin, and how any potential benefits might balance against known risks. The complete protocols for said trials, name CANVAS and CANVAS-R, which protocols are each incorporated in their entirety herein, may be found on www.clinicaltrials.gov (more specifically at the following urls: https://clinicaltrials.gov/ct2/show/NCT01032629?term=canvas&rank=1 and https://clinicaltrials.gov/ct2/show/NCT01989754?term=canvas-r&rank=1, respectively).
(§2) All potential participants completed a 2-week, single-blind, placebo run-in period. Randomization was done centrally through an interactive web response system using a computer-generated randomization schedule prepared by the study sponsor using randomly permuted blocks. Participants in CANVAS were randomly assigned in a 1:1:1 ratio to canagliflozin 300 mg, canagliflozin 100 mg, or matching placebo, and participants in CANVAS-R were randomly assigned in a 1:1 ratio to canagliflozin or matching placebo administered at an initial dose of 100 mg daily with optional up-titration to 300 mg from week 13. Participants and all study staff were masked to individual treatment allocations until the completion of the study. Use of other background therapy for glycemic management and other risk factor control was according to best practice instituted in line with local guidelines including Renin Angiotensin System (RAS) blockade.
(§3) Post-randomization, face-to-face follow-up was scheduled for 3 visits in the first year and at 6-month intervals thereafter, with alternating telephone follow-up between face-to-face assessments. Every follow-up included inquiry about primary and secondary outcome events and serious adverse events. Urinary albumin:creatinine ratio was measured every 26 weeks in CANVAS-R, and at Week 12 and then annually in CANVAS. Serum creatinine measurement with estimation of glomerular filtration rate (eGFR) was performed at least every 26 weeks in both trials. Individuals that prematurely discontinued study treatment continued scheduled follow-up wherever possible, with extensive efforts made to obtain full outcome data for all during the final follow-up window that spanned November 2016 to February 2017.
(§4) The primary outcome was a composite of cardiovascular mortality, nonfatal myocardial infarction, or nonfatal stroke. Secondary outcomes were total mortality; cardiovascular mortality; progression of albuminuria; and the composite of cardiovascular mortality and hospitalization for heart failure. Progression of albuminuria grade was defined as a more then 30% increase in albuminuria and a switch from either normoalbuminuria to microalbuminuria or macroalbuminuria, or from microalbuminuria to macroalbuminuria. In the event that sequential testing was not significant for all then remaining outcomes were scheduled for assessment as exploratory variables in the integrated dataset.
(§5) Evaluation of total hospitalizations was also prespecified.
(§6) All major cardiovascular events, renal outcomes and deaths, plus selected safety outcomes were ratified by Endpoint Adjudication Committees. Intermediate markers of cardiovascular risk and requirement for antihyperglycemic agents were assessed to help understand the observed effects on cardiovascular and renal outcomes. Analyses of safety were of adverse events coded using the latest version of the MedDRA Dictionary. For bone fracture, the primary prespecified analysis was for low-trauma fracture events but secondary analysis of all fractures was also done. Amputations were assessed overall but numbers of cases above and below the ankle were also reported.
(§7) The primary hypothesis test was of noninferiority for the hazard ratio (HR) for the primary outcome at the margin of 1.3 for all canagliflozin versus placebo using the full integrated dataset and the intent to treat approach. […]

[2] = test system: men and women with type 2 diabetes and history or high risk of cardiovascular disease; assay: CANVAS clinical trial, canagliflozin 300 mg or 100 mg versus placebo
Description: as §1, §2, §3, §4, §5, §6, §7

[3] = test system: men and women with type 2 diabetes and history or high risk of cardiovascular disease; assay: CANVAS-R clinical trial, canagliflozin 100 mg with optional up-titration to 300 mg versus placebo
Description: as §1, §2, §3, §4, §5, §6, §7

[4] = CANVAS Program, vs placebo, listed as canagliflozin
[5] = CANVAS Program, canagliflozin group
[6] = canagliflozin compared to placebo, combined trials n=10,142
[7] = integrated CANVAS and CANVAS-R, canagliflozin group
[8] = integrated database with removal of all study time and mortality events accrued prior to Nov. 20, 2012
[9] = integrated database with removal of all study time and mortality events accrued prior to Nov. 20, 2012, vs placebo
[10] = vs placebo, listed as canagliflozin

## Cc1ccc([C@@H]2O[C@H](CO)[C@@H](O)[C@H](O)[C@H]2O)cc1Cc1ccc(-c2ccc(F)cc2)s1 [Canagliflozin, canagliflozin]
[1]; CANVAS Program, vs placebo
  Cardiovascular mortality, hazard ratio (95% confidence interval): 0.87 (0.72-1.06)
  Total (all-cause) mortality, hazard ratio (95% confidence interval): 0.87 (0.74-1.01)
  40% reduction in eGFR, RRT, or renal death, hazard ratio (95% confidence interval): 0.60 (0.47-0.77)
  40% reduction in eGFR, RRT, renal death or macroalbuminuria, hazard ratio (95% confidence interval): 0.57 (0.50-0.66)
  40% reduction in eGFR, RRT, renal or CV death, hazard ratio (95% confidence interval): 0.77 (0.66-0.89)
  Cardiovascular mortality or hospitalization for heart failure, hazard ratio (95% confidence interval): 0.78 (0.67-0.91)
  Hospitalization for heart failure, hazard ratio (95% confidence interval): 0.67 (0.52-0.87)
  Nonfatal myocardial infarction, hazard ratio (95% confidence interval): 0.85 (0.69-1.05)
  Nonfatal stroke, hazard ratio (95% confidence interval): 0.90 (0.71-1.15)
  Progression of albuminuria, hazard ratio (95% confidence interval): 0.73 (0.67-0.79)
  Regression of albuminuria, hazard ratio (95% confidence interval): 1.70 (1.51-1.91)
[1]; [4]
  Cardiovascular mortality, hazard ratio (95% confidence interval): 0.87
  Total (all-cause) mortality, hazard ratio (95% confidence interval): 0.87
  40% reduction in eGFR, RRT, or renal death, hazard ratio (95% confidence interval): 0.60
  Progression of albuminuria, hazard ratio (95% confidence interval): 0.73
[1]; [5]
  40% reduction in eGFR, RRT, or renal death, n/N: 124/5795
  40% reduction in eGFR, RRT, renal death or macroalbuminuria, n/N: 404/5795
  40% reduction in eGFR, RRT, renal or CV death, n/N: 379/5795
  Cardiovascular mortality or hospitalization for heart failure, n/N: 364/5795
  Cardiovascular mortality, n/N: 268/5795
  Cardiovascular mortality, nonfatal myocardial infarction, or nonfatal stroke, n/N: 585/5795
  Hospitalization for heart failure, n/N: 123/5795
  Nonfatal myocardial infarction, n/N: 215/5795
  Nonfatal stroke, n/N: 158/5795
  Progression of albuminuria, n/N: 1341/5196
  Regression of albuminuria, n/N: 885/1679
  Total mortality, n/N: 400/5795
[1]; CANVAS Program
  Primary outcome (cardiovascular mortality, nonfatal myocardial infarction, or nonfatal stroke), hazard ratio (95% confidence interval): 0.86 (0.75-0.97)
[1]; CANVAS Program, listed as canagliflozin
  Primary outcome (cardiovascular mortality, nonfatal myocardial infarction, or nonfatal stroke), hazard ratio (95% confidence interval): 0.86
[1]; canagliflozin compared to placebo group
  Use of other antihyperglycemic agents during follow-up, lower than placebo group: 9.3%
[1]; [6]
  Mean difference in body weight: -1.60 kg
  Mean difference in glycated hemoglobin: −0.58%
  Mean difference in systolic blood pressure: −3.93 mmHg
[1]; [7]
  Composite of sustained 40% reduction in eGFR, end-stage kidney disease or renal death, events per 1000 patient-years: 5.5 /1000 patient-years
  Progression of albuminuria grade, events per 1000 patient-years: 89.4 /1000 patient-years
[1]; canagliflozin group
  Primary outcome (cardiovascular mortality, nonfatal myocardial infarction, or nonfatal stroke), events per 1000 patient-years: 26.93 per 1000 patient-years
[1]; canagliflozin group, listed as canagliflozin
  Primary outcome (cardiovascular mortality, nonfatal myocardial infarction, or nonfatal stroke), events per 1000 patient-years: 26.9 per 1000 patient-years
[1]; [8]
  All-cause mortality, events per 1000 patient-years: 19.05 per 1000 patient-years
  Cardiovascular death, events per 1000 patient-years: 12.82 per 1000 patient-years
[1]; [9]
  All-cause mortality, hazard ratio (95% confidence interval): 0.90 (0.76-1.07)
  Cardiovascular death, hazard ratio (95% confidence interval): 0.96 (0.77-1.18)
[1]; multiple imputation for missing data, vs placebo
  Primary outcome hazard ratio when imputation for missing events was performed: 0.85
[2]; canagliflozin group
  40% reduction in eGFR, RRT, or renal death, n/N: 91/2888
  40% reduction in eGFR, RRT, renal death or macroalbuminuria, n/N: 292/2888
  40% reduction in eGFR, RRT, renal or CV death, n/N: 286/2888
  Cardiovascular mortality or hospitalization for heart failure, n/N: 269/2888
  Cardiovascular mortality, n/N: 207/2888
  Cardiovascular mortality, nonfatal myocardial infarction, or nonfatal stroke, n/N: 425/2888
  Hospitalization for heart failure, n/N: 85/2888
  Nonfatal myocardial infarction, n/N: 152/2888
  Nonfatal stroke, n/N: 106/2888
  Progression of albuminuria, n/N: 895/2655
  Regression of albuminuria, n/N: 434/786
  Total mortality, n/N: 301/2888
[2]; vs placebo
  40% reduction in eGFR, RRT, or renal death, hazard ratio (95% confidence interval): 0.56 (0.41-0.75)
  40% reduction in eGFR, RRT, renal death or macroalbuminuria, hazard ratio (95% confidence interval): 0.64 (0.54-0.76)
  40% reduction in eGFR, RRT, renal or CV death, hazard ratio (95% confidence interval): 0.74 (0.62-0.89)
  Cardiovascular mortality or hospitalization for heart failure, hazard ratio (95% confidence interval): 0.82 (0.67-0.99)
  Cardiovascular mortality, hazard ratio (95% confidence interval): 0.88 (0.70-1.10)
  Cardiovascular mortality, nonfatal myocardial infarction, or nonfatal stroke, hazard ratio (95% confidence interval): 0.88 (0.75-1.03)
  Hospitalization for heart failure, hazard ratio (95% confidence interval): 0.77 (0.55-1.08)
  Nonfatal myocardial infarction, hazard ratio (95% confidence interval): 0.85 (0.65-1.11)
  Nonfatal stroke, hazard ratio (95% confidence interval): 0.97 (0.70-1.35)
  Progression of albuminuria, hazard ratio (95% confidence interval): 0.80 (0.72-0.90)
  Regression of albuminuria, hazard ratio (95% confidence interval): 1.56 (1.30-1.87)
  Total mortality, hazard ratio (95% confidence interval): 0.84 (0.70-1.01)
[2]; [10]
  Progression of albuminuria, hazard ratio (95% confidence interval): 0.80
[3]
  Albumin:creatinine ratio progression, events per 1000 patient-years: 99.80 per 1000 patient-years
  Cardiovascular death or hospitalization for heart failure, events per 1000 patient-years: 15.85 per 1000 patient-years
  Cardiovascular death, events per 1000 patient-years: 10.06 per 1000 patient-years
[3]; canagliflozin group
  40% reduction in eGFR, RRT, or renal death, n/N: 33/2907
  40% reduction in eGFR, RRT, renal death or macroalbuminuria, n/N: 112/2907
  40% reduction in eGFR, RRT, renal or CV death, n/N: 93/2907
  Cardiovascular mortality or hospitalization for heart failure, n/N: 95/2907
  Cardiovascular mortality, n/N: 61/2907
  Cardiovascular mortality, nonfatal myocardial infarction, or nonfatal stroke, n/N: 160/2907
  Hospitalization for heart failure, n/N: 38/2907
  Nonfatal myocardial infarction, n/N: 63/2907
  Nonfatal stroke, n/N: 52/2907
  Progression of albuminuria, n/N: 446/2541
  Regression of albuminuria, n/N: 451/893
  Total mortality, n/N: 99/2907
[3]; vs placebo
  40% reduction in eGFR, RRT, or renal death, hazard ratio (95% confidence interval): 0.71 (0.45-1.11)
  40% reduction in eGFR, RRT, renal death or macroalbuminuria, hazard ratio (95% confidence interval): 0.48 (0.38-0.60)
  40% reduction in eGFR, RRT, renal or CV death, hazard ratio (95% confidence interval): 0.82 (0.62-1.08)
  Cardiovascular mortality or hospitalization for heart failure, hazard ratio (95% confidence interval): 0.72 (0.55-0.94)
  Cardiovascular mortality, hazard ratio (95% confidence interval): 0.86 (0.61-1.22)
  Cardiovascular mortality, nonfatal myocardial infarction, or nonfatal stroke, hazard ratio (95% confidence interval): 0.82 (0.66-1.01)
  Hospitalization for heart failure, hazard ratio (95% confidence interval): 0.56 (0.38-0.83)
  Nonfatal myocardial infarction, hazard ratio (95% confidence interval): 0.85 (0.61-1.19)
  Nonfatal stroke, hazard ratio (95% confidence interval): 0.82 (0.57-1.18)
  Progression of albuminuria, hazard ratio (95% confidence interval): 0.64 (0.57-0.73)
  Regression of albuminuria, hazard ratio (95% confidence interval): 1.80 (1.55-2.09)
  Total mortality, hazard ratio (95% confidence interval): 0.92 (0.70-1.21)
[3]; [10]
  Progression of albuminuria, hazard ratio (95% confidence interval): 0.64
